Measured values from patent US9803021B2 (The Regents of the University of California, priority 2012, dated 2017).
Entries after “also recorded” stand apart in the source; their conditions may differ.

Legend:
OPM-2 = assay: MTS assay (cell viability / metabolic activity); assay type: cell-based, human
Experimental: (§1) Percent cell viability was determined using MTS solution (Promega, Madison, Wis.) by measuring absorbance at 490 nm using a Synergy HT Multi-Detection Microplate Reader (BioTek Instruments, Inc., Winooski, Vt.) with untreated cells being 100%. GraphPad Prism (GraphPad Software Inc., La Jolla, Calif.) was used to analyze data by non-linear regression with the log (inhibitor) vs. the response with a variable slope with the IC50 calculated. Data are expressed as a percentage of maximum metabolic activity. The experiments were performed in triplicate.
To determine if the HMCLs were sensitive to treatment with IFNα fusion protein, HMCLs were incubated with varying concentrations of anti-CD138-IFNα, and cell viability was assessed. Anti-CD138-IFNα was used to target IFNα to the MM cell lines while anti-CD20-IFNα was used as an untargeted control. […] The MM cell lines differed in their response to treatment with the fusion proteins.

U266 tumors = assay: U266 xenograft model in NSG mice; conditions: U266 s.c.
Experimental: For U266 tumors, NOD scid IL-2 receptor gamma chain knock out (NSG) mice were injected subcutaneously with 1×10^7 U226 cells and treated on days 14, 16 and 18 with 100 μg of the indicated proteins. […] Survival was monitored as well as the size of the tumors.
For U266 tumors, experiments were carried out as described above except that NOD-scid IL2rγ^null (NSG) mice were used.

NCI-H929 [1] = assay: Cell cycle analysis (PI DNA content, flow cytometry); assay type: cell-based, human; conditions: NCI-H929, 500 pM, 4 days
Experimental: (§2) Cells were incubated with 1 ml of hypotonic DNA staining buffer (1 mg/ml sodium citrate, 100 μg/ml PI, 20 μg/ml RNase A, and 0.3% Triton X-100 in dH2O) for 30-60 min at 4° C. in the dark. Cells were analyzed by flow cytometry and cell cycle analysis performed using FlowJo software with the Watson Model.
(§3) Cells were incubated with 1 ml of hypotonic DNA staining buffer (1 mg/ml sodium citrate, 100 μg/ml PI, 20 μg/ml RNase A, and 0.3% Triton X-100) for 30-60 minutes at 4° C. in the dark. Cells were analyzed by flow cytometry and cell cycle analysis performed using FlowJo software with the Watson Model.

U266 [2] = assay: as above; assay type: cell-based, human; conditions: U266, 500 pM, 4 days
Experimental: as §2, §3

Daudi cells = assay: MTS cell viability assay; assay type: cell-based, human; conditions: 72 h / 3 day incubation
Experimental: as §1
as §1, with “Metabolic activity” for “Percent cell viability”, “(Promega)” for “(Promega, Madison, Wis.)”, “Instruments Inc.)” for “Instruments, Inc., Winooski, Vt.)”, “Inc.)” for “Inc., La Jolla, Calif.)”, “versus” for “vs.”, “slope.” for “slope with the IC50 calculated.”

OCI-My5 = assay: Apoptosis assay (Annexin V / PI flow cytometry); assay type: cell-based, human; conditions: 3 days; for induction of apoptosis, result in words: OCI-My5, 500 pM (also 1 nM)
Experimental: (§4) Cells were analyzed by flow cytometry using FlowJo software.
(§5) Cells were stained with Alexa Fluor 488-labeled Annexin V and propidium iodide (PI) using the Vybrant Apoptosis Kit #2 (Molecular Probes) as per manufacturer's instructions and analyzed by flow cytometry.

NCI-H929 [3] = assay: Apoptosis assay (Annexin V / PI flow cytometry); assay type: cell-based, human
Experimental: as §4, §5

8226/S = assay: Apoptosis assay (Annexin V / PI flow cytometry); assay type: cell-based, human
Experimental: as §4, §5

U266 [4] = assay: Apoptosis assay (Annexin V / PI flow cytometry); assay type: cell-based, human
Experimental: as §4, §5

ANBL-6 = assay: Apoptosis assay (Annexin V / PI flow cytometry); assay type: cell-based, human
Experimental: as §4, §5

MM1-144 = assay: Apoptosis assay (Annexin V / PI flow cytometry); assay type: cell-based, human
Experimental: as §4, §5

OCI-My 5 tumors = assay: OCI-My5 xenograft model in SCID mice; assay type: in vivo, mouse; conditions: OCI-My5 s.c.
Excerpt: Eight mice were included in each group.
Each group consisted of eight mice.

IRF-4 in U266 = assay: Western blot of IRF-4; assay type: cell-based, human; conditions: U266, 1 nM, 2 days
Experimental: Cells were lysed using RIPA buffer (50 mM Tris HCl pH 8, 150 mM NaCl, 1% NP-40, 0.5% sodium deoxycholate, 0.1% SDS) containing a protease inhibitor cocktail (Roche Applied Science, Indianapolis, Ind.). The cytosolic fractions were reduced with β-mercaptoethanol and separated by SDS-PAGE. Following transfer to nitrocellulose membrane (Whatman, Piscataway, N.J.) and blocking, samples were incubated with the following primary rabbit antibodies: anti-IRF4 (Epitomics, Berlingham, Calif.), anti-glyceraldehyde-3-phosphate dehydrogenase (GAPDH; Sigma), anti-ppRb Ser807/811 (Santa Cruz Biotechnology, Santa Cruz, Calif.), anti-cyclin D (Millipore, Billerica, Mass.), or anti-β tubulin (Abcam, Cambridge, Mass.). Secondary anti-rabbit IgG-HRP (GE Healthcare, Billerica, Mass.) was used and the blots were developed using enhanced chemiluminescence (ECL; Thermo Scientific, Waltham, Mass.).
Cells were lysed using RIPA buffer (50 mM Tris-HCl pH 8, 150 mM NaCl, 1% NP-40, 0.5% sodium deoxycholate, 0.1% SDS) containing a protease inhibitor cocktail (Roche Applied Science). The cytosolic fractions were reduced with β-mercaptoethanol and separated by SDS PAGE. […] Films were imaged using a Multilmage™ Light Cabinet (Alpha Innotech Corp.) and analyzed using NIH Image J. Bands were normalized to a GAPDH loading control and expressed as percentage band intensity of untreated cells.

anti-CD138-IFNα: Fusion protein: murine B-B4 anti-CD138 variable regions, human IgG1κ constant regions, human IFNα2 fused to the antibody C-terminus via SGGGGS linker
cell viability (MTS assay), result in words (OPM-2; OPM-2, 3 days): little or no effect | cell viability (MTS assay), result in words (OPM-2; OPM-2, treatment increased to 4 days (data not shown)): decrease in viability | survival / protection against tumor growth, result in words (U266 tumors; 100 μg on days 14, 16, 18): much more effective than untargeted anti-DNS-IFNα | survival / protection against tumor growth, result in words (U266 tumors; 100 μg on days 14, 16, 18, listed as anti-CD138-IFNα2): highest levels of protection | % G1 (NCI-H929 [1]): 41.9% | % G2/M (NCI-H929 [1]): 24.3% | % S (NCI-H929 [1]): 21.0% | >G2 (NCI-H929 [1]): 8.2% | Sub G0/G1 (NCI-H929 [1]): 18.9% | % G1 (U266 [2]): 53.9% | % G2/M (U266 [2]): 15.1% | % S (U266 [2]): 21.4% | >G2 (U266 [2]): 5.5% | Sub G0/G1 (U266 [2]): 13.2% | cell viability (MTS assay), result in words (Daudi cells): just as effective as recombinant IFNα | induction of apoptosis at low concentration, result in words (OCI-My5; OCI-My5, 5 pM): able to induce apoptosis | induction of apoptosis, result in words (OCI-My5): did not induce apoptosis; also recorded: did not cause apoptosis or blocks to cell cycle progression | induction of apoptosis, result in words (OCI-My5; listed as anti-CD138-IFNα2): caused apoptosis | Mode of Action of anti-CD138-IFNα fusion (NCI-H929 [3]; H929): Apoptosis | induction of apoptosis, result in words (NCI-H929 [3]; H929 (NCI-H929), 500 pM, 3 days, listed as anti-CD138-IFNα2): caused apoptosis | induction of apoptosis at low concentration, result in words (NCI-H929 [3]; NCI-H929, 1 pM, 3 days): did not cause apoptosis | Mode of Action of anti-CD138-IFNα fusion (8226/S): Apoptosis | Mode of Action of anti-CD138-IFNα fusion (U266 [4]; U266): Apoptosis | induction of apoptosis at low concentration, result in words (U266 [4]; U266, 1 pM, 3 days): able to induce apoptosis | induction of apoptosis, result in words (U266 [4]; U266, 500 pM, 3 days, listed as anti-CD138-IFNα2): caused apoptosis | Mode of Action of anti-CD138-IFNα fusion (ANBL-6; ANBL-6): Apoptosis | induction of apoptosis at low concentration, result in words (ANBL-6; ANBL-6, 1 pM, 3 days): did not cause apoptosis | induction of apoptosis, result in words (ANBL-6; ANBL-6, 500 pM, 3 days, listed as anti-CD138-IFNα2): caused apoptosis | induction of apoptosis at low concentration, result in words (MM1-144; MM1-144, 1 pM, 3 days): did not cause apoptosis | Mode of Action of anti-CD138-IFNα fusion (MM1-144; MM144): Apoptosis | induction of apoptosis, result in words (MM1-144; MM144 (MM1-144), 500 pM, 3 days): caused apoptosis | survival / protection, result in words (OCI-My 5 tumors; 100 μg i.v. on days 14, 16, 18): significant increase in survival | survival / protection, result in words (OCI-My 5 tumors; 100 μg i.v. on days 14, 16, 18, listed as anti-CD138-IFNα2): greater protection | IRF-4 expression (Western blot) (IRF-4 in U266): decrease was similar
